According to patent US20200123495A1, “COMPOSITION AND METHOD FOR CONTROLLING INSECTS AND MICR[…] PSEUDOMONAS […]” (Academia Sinica, priority 2014, published 2020):

What was measured:
[1] = test system: Xanthomonas oryzae pv. oryzae (Xoo)
[2] = CAS plate assay (removal of iron from the CAS dye); conditions: 1.2 and 1.5 mg pyoverdine on CAS agar plates
Procedure: Chrome azurol S (CAS) is a universal method that detects the mobilization of iron, which assays siderphores production. To prepare 100 ml CAS dye, 60.5 mg CAS powder (Sigma) was dissolved in 50 ml distilled water and mixed with 10 ml of 1 mM iron solution (anhydration FeCl3, Alfa Aesar). Then, 40 ml of 72.9 mg HDTMA (Sigma) was added slowly to 60 ml CAS solution with FeCl3 and autoclaved to sterilize. After CAS cool down can be hand held, one-tenth of CAS solution mixed with LP agar medium and immediately poured into plates.
Different concentration of purified pyoverdine was injected into the hole (5 mm) of CAS plates. Plates were incubated at 28° C. for 6 h or until yellow halo appearance.

[3] = test system: Drosophila melanogaster; conditions: previous study, Liu et al. 2010; cited from earlier work

Row | Molecule | IC50 toward Xoo (inhibition of cell growth) [1] | LD50 against Xoo (lethal dose) [1] | CAS reaction rate [2] | mortality in Drosophila larvae [3]
1 | C[C@@H](O)[C@@H](NC(=O)[C@@H](NC(=O)[C@H](CCCCN)NC(=O)[C@@H](CO)NC(=O)C1CCN=C2C(NC(=O)CCC(=O)O)=Cc3cc(O)c(O)cc3N21)C(O)c1c[nH]cn1)C(=O)N[C@@H](CO)C(=O)N[C@H]1CCCN(O)C1=O (stereo partly drawn) [pyoverdine, Q-DSer-Lys-OHHis-aDThr-Ser-cOHOrn] | about 2.035 mg/ml | about 1.98 mg/ml | rapidly detected | 
2 | recombinant TccC: TccC gene from P. taiwanensis overexpressed in E. coli (SEQ ID NO:2) |  |  |  | increase the mortality
